In patent US20200323950A1, “ANTIBACTERIAL PEPTIDES AND COMBINATIONS FOR CO-THERAPY” (priority 2017, published 2020):
Values after ≈ are worked out from the molar mass of the structure shown. *1 amine or outer side, *2 acyl side, *3 side chain or, on linkers, in order; H or OH if unused. Bridges are numbered along the chain shown (N, C = ends). Roman numbers before positions name the chains, in order. [ ]: non-standard residue; d: D form. The star is where a group is joined. Maleimide(3,4-diyl) = O=C1NC(=O)C([*:2])=C1[*:1]; Ac6c = NC1(C(=O)O)CCCCC1; Dab = NCC[C@H](N)C(=O)O; NHNH2 = NN*

Experiments:
K. pneumoniae K97/09 = experiment: Bacteremia Synergy Assay 1 (mouse systemic infection); assay type: in vivo; settings: 30 mg/kg sc 3 times (Group 2)
Experimental: In vivo Studies. Animals. Assays 1-2. NMRI (Naval Medical Research Institute) BR or CD-1 mice (Toxi-Coop Zrt, Budapest, Hungary) were housed in plastic type 2 cages, 3-5 mice per cage, on softwood granules as bedding. The room was kept between 21° C. and 25° C. with 12 h light:12 h dark cycles. The animals had free access to tap water and pelleted rodent food. Upon completion of the experiments, surviving mice were euthanized by diethyl ether inhalation. Animals were maintained and handled in accordance with the recommendations of the Guidelines for the Care and Use of Laboratory Animals, and the protocols were approved by the Animal Care Committee of Semmelweis University. The planned 15 treatment groups of mice were divided roughly equally into two assays with 8 and 7 treatment groups and untreated controls in each assay for safe and humane handling of large numbers of mice.
Infection models. NMRI mice weighing approximately 20 g (4 weeks old) were infected by intraperitoneal (ip) injection of 4×10^8 CFU/g K. pneumoniae K97/09. Mice were randomly allocated to 8 and […] groups (5 mice per group).
Bacteremia Synergy Assay 1.
Group 1: phosphate buffered saline (PBS) subcutaneously (sc) 1 h after infection. Group 2: imipenem 30 mg/kg sc at 2, 14 and 26 h after infection. […]
Survival was recorded hourly 24-36 h after infection. […]

[1] = system: multidrug-resistant Klebsiella pneumoniae K97/09; experiment: microbe, parasite or virus in culture
[2] = system: multidrug-resistant Acinetobacter baumannii BAA-1605; experiment: microbe, parasite or virus in culture; settings: BAA1605
A. baumannii ATCC 19606 = experiment: Antibacterial assay (MIC); assay type: cell-based; settings: A. baumannii ATCC 19606, MHB, 37° C.
Experimental: (§1) Antibacterial assay. Antibacterial assays are undertaken to determine the minimal inhibitory concentrations (MIC) as described previouslyl^6.
(§2) Antibacterial activity. Each C-terminal modified PrAMP DTM-linked tetramer is assayed against nosocomial Gram-negative bacteria, including E. coli ATCC 29222, K. pneumoniae ATCC 13883, A. baumannii ATCC 19606 and P. aeruginosa ATCC 47085.

E. coli ATCC 29222 = experiment: Antibacterial assay (MIC); assay type: cell-based; settings: E. coli ATCC 29222, MHB, 37° C.
Experimental: as §1, §2

K. pneumoniae ATCC 13883 = experiment: Antibacterial assay (MIC); assay type: cell-based; settings: K. pneumoniae ATCC 13883, MHB, 37° C.
Experimental: as §1, §2

P. aeruginosa ATCC 47085 = experiment: Antibacterial assay (MIC); assay type: cell-based; settings: P. aeruginosa ATCC 47085, MHB, 37° C.
Experimental: as §1, §2

[3] = system: panel of Gram-negative nosocomial bacteria (E. coli, K. pneumoniae, A. baumannii, P. aeruginosa); experiment: Antibacterial assay (MIC), ranges over the panel; assay type: cell-based; settings: against E. coli, A. baumannii and P. aeruginosa
Experimental: as §1, §2

[4] = system: Klebsiella pneumoniae K97/09; experiment: Checkerboard synergy assay (FIC index); assay type: cell-based; settings: K. pneumoniae K97/09
Experimental: In vitro activity and synergy. Minimal inhibitory concentration (MIC) assays were performed using sterile 96-well polypropylene plates in a final volume of […]. Briefly, 50 μL of midlogarithmic phase bacterial cultures were diluted to 5×10^5 CFU/mL in Mueller-Hinton broth (MHB) and then added to 50 μL of the serially diluted antibiotic. The highest A3-APO and other test compound concentration evaluated was 256 mg/L. Cultures were incubated at 37° C. for 16-20 h without shaking. MICs were identified as the lowest antimicrobial concentrations at which turbidity was not observed. Antimicrobial synergy was determined by evaluating the fractional inhibitory concentration (FIC) index and was characterized by a conventional checkerboard assay (Fernandez-Cuenca et al., 2003). Bacteria grown to mid-logarithmic phase in MHB were pre-incubated with serially diluted concentrations of peptides such as A3-APO, and the antimicrobial controls, imipenem, colistin or meropenem.
The sum of the FICs (Σ FIC) was calculated with the equation Σ FIC=FICA+FICB=(CA/MICA)+(CB/MICB), where MICA and MICB are the MICs of antimicrobial A and B alone, respectively, and CA and CB are the concentrations of the drugs when combined, respectively. Synergy was defined as a Σ FICs≤0.5 and additive activity was defined as a Σ FICs>0.5≤1.0.

[5] = system: Acinetobacter baumannii BAA-1605; assay type: cell-based; settings: A. baumannii BAA-1605
Experimental: In vitro activity and synergy. Minimal inhibitory concentration (MIC) assays were performed using sterile 96-well polypropylene plates in a final volume of 100 mL. Briefly, 50 μL of midlogarithmic phase bacterial cultures were diluted to 5×10^5 CFU/mL in Mueller-Hinton broth (MHB) and then added to 50 μL of the serially diluted antibiotic. […] MICs were identified as the lowest antimicrobial concentrations at which turbidity was not observed. Antimicrobial synergy was determined by evaluating the fractional inhibitory concentration (FIC) index and was characterized by a conventional checkerboard assay (Fernandez-Cuenca et al., 2003).

bacterial DnaK = bacterial DnaK (Escherichia coli, UniProt P0A6Y8); settings: Cassone et al., 2008; cited from earlier work
bacterial DnaK, sequence (P0A6Y8 whole entry): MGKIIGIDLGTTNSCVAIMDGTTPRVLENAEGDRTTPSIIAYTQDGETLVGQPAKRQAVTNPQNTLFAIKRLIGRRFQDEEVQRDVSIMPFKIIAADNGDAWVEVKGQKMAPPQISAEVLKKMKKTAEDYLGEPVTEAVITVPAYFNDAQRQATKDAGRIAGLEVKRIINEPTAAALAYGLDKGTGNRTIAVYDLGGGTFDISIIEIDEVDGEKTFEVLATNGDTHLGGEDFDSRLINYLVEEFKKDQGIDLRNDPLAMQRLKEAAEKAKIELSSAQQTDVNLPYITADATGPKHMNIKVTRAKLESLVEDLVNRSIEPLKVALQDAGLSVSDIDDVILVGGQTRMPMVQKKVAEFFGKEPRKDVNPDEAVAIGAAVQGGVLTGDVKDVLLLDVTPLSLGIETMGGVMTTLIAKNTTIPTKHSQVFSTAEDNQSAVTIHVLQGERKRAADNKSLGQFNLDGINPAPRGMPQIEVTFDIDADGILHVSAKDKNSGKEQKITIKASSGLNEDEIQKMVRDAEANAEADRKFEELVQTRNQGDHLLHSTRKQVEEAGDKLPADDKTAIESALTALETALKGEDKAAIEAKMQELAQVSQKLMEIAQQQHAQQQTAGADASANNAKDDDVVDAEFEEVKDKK

S. typhimurium = experiment: Synergy results for co-administration of A3-APO (ARV-1501); assay type: cell-based; settings: antibiotic co-administered with A3-APO (ARV-1501)

In the case of `C[C@@H](O)[C@H]1C(=O)N2C(C(=O)O)=C(SCCN=CN)C[C@H]12` [imipenem], the “survival improvement at 36 h over untreated controls” value (K. pneumoniae K97/09) is reported as 40%, the MIC [1] is reported as > 256 µg/mL and the MIC [2] is reported as 64 µg/mL (≈ 214 µM).

In the case of “I: H-[Ac6c]RPDKPRPYLPRPRPPRPVR[Dab]C-NHNH2 / II: H-[Ac6c]RPDKPRPYLPRPRPPRPVR[Dab]C-NHNH2 / III: H-[Ac6c]RPDKPRPYLPRPRPPRPVR / IV: H-[Ac6c]RPDKPRPYLPRPRPPRPVR (amide I:21-III:C, II:21-IV:C; linker I:22-II:22 via Maleimide(3,4-diyl)) [tetramer-DTM-NHNH2]”, the “Antibacterial activity, MIC” value (A. baumannii ATCC 19606) is reported as 2.33 ± 0.48 µM, the “Antibacterial activity, MIC” value (E. coli ATCC 29222) is reported as 0.93 ± 0.02 µM and the “Antibacterial activity, MIC” value (K. pneumoniae ATCC 13883) is reported as 0.49 ± 0.01 µM. For the same compound, the “Antibacterial activity, MIC” value (P. aeruginosa ATCC 47085) was 1.14 ± 0.03 µM and the “MIC (range over the bacteria)” value [3] was 0.49 to 2.33 µM.

For “I: H-[Ac6c]RPDKPRPYLGRPRPPRPVR[Dab]-NH2 / II: H-[Ac6c]RPDKPRPYLGRPRPPRPVR (amide I:21-II:C) [Gly11, (H-Chex-Arg-Pro-Asp-Lys-Pro-Arg-Pro-Tyr-Leu-Gly-Arg-Pro-Arg-Pro-Pro-Arg-Pro-Val-Arg)2-Dab-NH2]”, the “improvement in the MIC values when added together with imipenem or colistin” value [4] is given as “failed to exert any improvement”, the “improvement in the MIC values when added together with imipenem or colistin” value [5] is given as “failed to exert any improvement” and the DnaK binding (bacterial DnaK) is given as “fails to bind bacterial DnaK”.

For `Cc1cc(NS(=O)(=O)c2ccc(N)cc2)no1` [sulfamethoxazole], the Outcome (S. typhimurium) was “MIC lowered with priming”.
